Measurements taken from article PMC3070735, “Uremic Toxins Inhibit Transport by Breast Cancer Resistance Protein and Multidrug Resistance Protein 4 at Clinically Relevant Concentrations” (PLoS ONE, 2011).
Counter-ions that a name gives are not always drawn.

Legend:
[1] = Plasma concentrations of uremic toxins in CRF and ESRD patients and healthy controls (HPLC, LC/MS-MS); assay type: in vivo, human
Experimental: Blood samples were obtained from 4 patients with chronic renal failure (CRF) during regular check-up, 6 patients with end-stage renal disease (ESRD) before hemodialysis and 4 healthy controls. None of the subjects had been fasting at the time of blood sampling. Blood was collected in an EDTA Vacutainer and was immediately centrifuged at 3,000 x g for 10 min. Subsequently, plasma was collected and stored at −20°C. Before chromatography an aliquot of plasma was diluted in H2O (1∶1) and deproteinized with perchloric acid (final concentration 3.3% (v/v)). Next, samples were centrifuged at 12,000 x g for 3 min and 50 µl of the supernatant was injected into the HPLC-system (Spectra-Physics Analytical, Spectrasystem SCM400). […] Separation was performed at a flow rate of 1 ml/min with eluent A (95% (v/v) H2O, 5% (v/v) acetonitril and 0.1% (v/v) heptafluorobutyric acid) and eluent B (50% (v/v) H2O, 50% (v/v) acetonitrile and 0.1% (v/v) heptafluorobutyric acid) under the following gradient conditions: 0–1 min, 100% eluent A; 1–15 min, 100–25% eluent A; 15–17 min, 25% eluent A; 17–18 min, […]; 18–23 min, 100% eluent A. The compounds were detected at a wavelength of 230 nm. For the detection of phenylacetic acid, chromatography was performed on a C18 HPLC column (Polaris 3 C18-A 150×4.6 mm; Varian, Middelburg, the Netherlands) with eluent A (97% (v/v) 50 mM sodium phosphate buffer [pH 6.5] and 3% (v/v) methanol) and eluent B (50% (v/v) H2O, 49% (v/v) acetonitrile and 1% (v/v) tetrahydrofuran) using the following gradient: 0–1 min, 100% eluent A; 1–15 min, 100–90% eluent A; 15–18 min, 10–100% eluent B; 18–22 min, 100% eluent B; 22–25 min, 0–100% eluent A; 25–30 min, 100% eluent A. The flow rate was 1 ml/min and phenylacetic acid was measured at a wavelength of 215 nm. Standards of the compounds were also run in order to quantify the amount of toxins found in the samples. Acquired data were processed with PC1000 software (Spectrasystem).
To determine the levels of kynurenic acid, blood was collected from CRF patients and processed as described above. Subsequently, 10 µl of the clear supernatant was injected into the LC/MS-MS system that consisted of an Accela HPLC system (Thermo scientific, Breda, the Netherlands) equipped with a C18 HPLC column (VisionHT C18 B 100×2 mm, 1.5 µm; Grace). Separation was performed at a flow rate of 150 µl/min with eluent A (5 mM ammonium formate+0.01% (v/v) trifluoroacetic acid) and eluent B (50% acetonitrile) under the following gradient conditions: 0–10 min, 98–50% eluent A; 10–15 min, 50% eluent A; 15–16 min, 50–98% eluent A; 16–21 min, 98% eluent A. The fractions eluted were directly passed through a TSQ Vantage tandem mass spectrometer (Thermo scientific) equipped with an electro-spray ionization source operating in the positive ion mode. The ion spray voltage was 4 kV, source temperature was 350°C and collision gas pressure was 1.5 bar. Kynurinic acid and the internal standard 1-methyl-tryptophan were quantified by selected reaction monitoring (SRM). […] Acquired data were processed with Thermo Xcaliber software (Thermo scientific).

[2] = Uremic plasma concentrations (Cu, Cmax) in CKD patients from the EUTox database and literature; assay type: in vivo, human; conditions: calculated as Cmax = Cu + 2 SD; read-out: Hypothetical Cmax
[3] = CRF patients (n = 4), total plasma
[4] = ESRD patients (n = 6), total plasma
[5] = healthy controls (n = 4), total plasma

**Q.** With O=C(O)Cc1ccccc1 [phenylacetic acid] as the compound, how does the Maximum plasma concentration ([1]; CRF patients) read?
**A.** 9 µM

**Q.** What about the Mean plasma concentration [1, 3] of the same compound?
**A.** 4 µM

**Q.** What about the Maximum plasma concentration ([1]; ESRD patients) of the same compound?
**A.** 83 µM

**Q.** What about the “Cm, mean plasma concentration determined in this study” value (from here on “Cm, mean plasma concentration”) [1, 4] of the same compound?
**A.** 18 µM

**Q.** What about the Mean plasma concentration [1, 5] of the same compound?
**A.** 5 µM

**Q.** What about the Cmax [2] of the same compound?
**A.** 7700 µM

**Q.** Which “Cm, mean plasma concentration” value ([1]; human, in vivo) does the source give for O=C(O)Cc1c[nH]c2ccccc12 [indole-3-acetic acid] here?
**A.** 4 µM

**Q.** With O=C(O)CNC(=O)c1ccccc1 [hippuric acid] as the compound, how does the “Cm, mean plasma concentration” value ([1]; human, in vivo) read?
**A.** 160 µM

**Q.** With O=C(O)c1cc(=O)c2ccccc2[nH]1 [kynurenic acid] as the compound, how does the “Cm, mean plasma concentration” value ([1]; human, in vivo) read?
**A.** 1 µM

**Q.** Which Mean plasma concentration [1, 3] does the source give for O=S(=O)(O)Oc1c[nH]c2ccccc12 [indoxyl sulfate] here?
**A.** 65 µM

**Q.** And the “Cm, mean plasma concentration” value [1, 4]?
**A.** 129 µM

**Q.** What about the Mean plasma concentration [1, 5] of the same compound?
**A.** 13 µM
